Assay results taken from ChEMBL document CHEMBL1201862, “PubChem BioAssay data set” (2004).
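Step 1: Grow cells in 96-well plates. Step 2: Expose to compound for 48 hours at 5 concentrations. Step 3: Interpolate endpoints linearly; if unreached, use highest concentration. At the GI50, growth is halved.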 Activity calls are given as the source filed them. Rule as the data show it: active = GI50 up to about 1.1 µM and inactive = higher.

Legend:
Assay in all cases: NCI tumour cell line growth inhibition, 48 h
[1] = system: T47D
[2] = system: Malme-3M
[3] = system: SNB-75
[4] = system: SF-268
[5] = system: MDA-MB-231
[6] = system: SF-295
[7] = system: NCI-H460
[8] = system: OVCAR-8
[9] = system: A498
[10] = system: NCI-H522
[11] = system: EKVX
[12] = system: SK-MEL-28
[13] = system: BT-549
[14] = system: A549
[15] = system: CAKI-1
[16] = system: LOX IMVI
[17] = system: MOLT-4
[18] = system: SK-MEL-2
[19] = system: HL-60
[20] = system: HT-29
[21] = system: SK-MEL-5
[22] = system: IGROV-1
[23] = system: SK-OV-3
[24] = system: SR
[25] = system: U-251
[26] = system: K562
[27] = system: OVCAR-4
[28] = system: KM12
[29] = system: SW-620
[30] = system: NCI-H226
[31] = system: MDA-N
[32] = system: SF-539
[33] = system: MDA-MB-435
[34] = system: M14
[35] = system: CCRF-CEM
[36] = system: SN12C
[37] = system: UACC-257
[38] = system: SNB-19
[39] = system: Hs-578T
[40] = system: COLO 205
[41] = system: NCI/ADR-RES
[42] = system: HCT-15
[43] = system: TK-10
[44] = system: HOP-62
[45] = system: PC-3
[46] = system: RXF 393
[47] = system: 786-0
[48] = system: OVCAR-3
[49] = system: ACHN
[50] = system: UACC-62
[51] = system: NCI-H23
[52] = system: RPMI-8226
[53] = system: HOP-92
[54] = system: MCF7
[55] = system: HCT-116
[56] = system: HCC 2998
[57] = system: UO-31
[58] = system: OVCAR-5
[59] = system: DU-145

Cc1cc(NS(=O)(=O)c2ccc(NC(=O)c3ccc4nc5ccccc5c(Nc5ccc(S(=O)(=O)N=C(N)N)cc5)c4c3)cc2)no1
GI50 [1]: 14.6 µM (inactive) | GI50 [2]: 15.6 µM (inactive) | GI50 [3]: 18.6 µM (inactive) | GI50 [4]: 19 µM (inactive) | GI50 [5]: 14.5 µM (inactive) | GI50 [6]: 16.9 µM (inactive) | GI50 [7]: 17.4 µM (inactive) | GI50 [8]: 18.2 µM (inactive) | GI50 [9]: 19.5 µM (inactive) | GI50 [10]: 17.1 µM (inactive) | GI50 [11]: 16.4 µM (inactive) | GI50 [12]: 18.2 µM (inactive) | GI50 [13]: 20.6 µM (inactive) | GI50 [14]: 16.9 µM (inactive) | GI50 [15]: 18.9 µM (inactive) | GI50 [16]: 9.46 µM (inactive) | GI50 [17]: 17.1 µM (inactive) | GI50 [18]: 16.5 µM (inactive) | GI50 [19]: 17.5 µM (inactive) | GI50 [20]: 21.4 µM (inactive) | GI50 [21]: 16.2 µM (inactive) | GI50 [22]: 16.2 µM (inactive) | GI50 [23]: 23.3 µM (inactive) | GI50 [24]: 18.3 µM (inactive) | GI50 [25]: 16.2 µM (inactive) | GI50 [26]: 10.6 µM (inactive) | GI50 [27]: 14.3 µM (inactive) | GI50 [28]: 17.1 µM (inactive) | GI50 [29]: 20.8 µM (inactive) | GI50 [30]: 14.2 µM (inactive) | GI50 [31]: 19.5 µM (inactive) | GI50 [32]: 20.8 µM (inactive) | GI50 [33]: 19.9 µM (inactive) | GI50 [34]: 15.1 µM (inactive) | GI50 [35]: 11.2 µM (inactive) | GI50 [36]: 17 µM (inactive) | GI50 [37]: 26.2 µM (inactive) | GI50 [38]: 29 µM (inactive) | GI50 [39]: 20 µM (inactive) | GI50 [40]: 18.8 µM (inactive) | GI50 [41]: 25.2 µM (inactive) | GI50 [42]: 15.4 µM | GI50 [43]: 25.5 µM (inactive) | GI50 [44]: 17.5 µM (inactive) | GI50 [45]: 16.9 µM (inactive) | GI50 [46]: 15.3 µM (inactive) | GI50 [47]: 15.2 µM (inactive) | GI50 [48]: 17.7 µM (inactive) | GI50 [49]: 13.6 µM (inactive) | GI50 [50]: 21.7 µM (inactive) | GI50 [51]: 18.8 µM (inactive) | GI50 [52]: 23.7 µM (inactive) | GI50 [53]: 14.7 µM (inactive) | GI50 [54]: 19.8 µM (inactive) | GI50 [55]: 17.3 µM (inactive) | GI50 [56]: 16 µM (inactive) | GI50 [57]: 17.2 µM (inactive) | GI50 [58]: 17.5 µM (inactive) | GI50 [59]: 17.1 µM (inactive)

COC(=O)/C=C/c1ccc2c(c1)CC1(C2)Cc2cc3c(cc2C1=O)CCC3 (stereo not drawn)
GI50 [1]: 11.1 µM (inactive) | GI50 [2]: 42 µM (inactive) | GI50 [3]: 24.9 µM (inactive) | GI50 [4]: 46.2 µM (inactive) | GI50 [5]: 39 µM (inactive) | GI50 [6]: 34.1 µM (inactive) | GI50 [7]: 80.9 µM (inactive) | GI50 [8]: 25.1 µM (inactive) | GI50 [9]: > 100 µM (inactive) | GI50 [10]: 31.1 µM (inactive) | GI50 [11]: 55.6 µM (inactive) | GI50 [12]: > 100 µM (inactive) | GI50 [13]: > 100 µM (inactive) | GI50 [14]: 40.3 µM (inactive) | GI50 [15]: 36.2 µM (inactive) | GI50 [16]: > 100 µM (inactive) | GI50 [17]: > 100 µM (inactive) | GI50 [18]: > 100 µM (inactive) | GI50 [19]: 7.98 µM (inactive) | GI50 [21]: 74.8 µM (inactive) | GI50 [22]: 24.3 µM (inactive) | GI50 [24]: 44.1 µM (inactive) | GI50 [25]: 26.5 µM (inactive) | GI50 [26]: > 100 µM (inactive) | GI50 [27]: 43.2 µM (inactive) | GI50 [28]: 56.8 µM (inactive) | GI50 [29]: > 100 µM (inactive) | GI50 [30]: 49.3 µM (inactive) | GI50 [31]: > 100 µM (inactive) | GI50 [32]: 31 µM (inactive) | GI50 [33]: > 100 µM (inactive) | GI50 [34]: 47 µM (inactive) | GI50 [35]: > 100 µM (inactive) | GI50 [36]: > 100 µM (inactive) | GI50 [37]: > 100 µM (inactive) | GI50 [38]: 31.6 µM (inactive) | GI50 [39]: 25.2 µM (inactive) | GI50 [40]: > 100 µM (inactive) | GI50 [41]: 42.5 µM (inactive) | GI50 [42]: > 100 µM | GI50 [43]: 57.3 µM (inactive) | GI50 [45]: 88.9 µM (inactive) | GI50 [46]: 24.5 µM (inactive) | GI50 [47]: 27 µM (inactive) | GI50 [48]: 4.63 µM (inactive) | GI50 [49]: 39.5 µM (inactive) | GI50 [50]: > 100 µM (inactive) | GI50 [52]: 15 µM (inactive) | GI50 [53]: 35.3 µM (inactive) | GI50 [54]: > 100 µM (inactive) | GI50 [55]: 15.7 µM (inactive) | GI50 [56]: > 100 µM (inactive) | GI50 [57]: 50.8 µM (inactive) | GI50 [59]: > 100 µM (inactive)
